Reference: patent publication US20230250095A1, “BENZIMIDAZOLE DERIVATIVES, PREPARATION METHOD THEREFOR AND MEDICAL USE THEREOF” (TUOJIE BIOTECH(SHANGHAI) CO., LTD., priority 2020, published 2023)

How the values were obtained:
CYP2C9 = target: T1, CYP2C9 (Homo sapiens, UniProt P11712); assay: CYP inhibition assay in pooled human liver microsomes (diclofenac sodium); type: in vitro ADME; conditions: human liver microsomes 0.2 mg/mL, substrate diclofenac sodium; read-out: CYP 2C9 (μM) IC50
T1 construct: 150-donor pooled human liver microsomes (purchased from Corning, Cat. No. 452117); tissue Corning 452117; host or cells: 150-donor pooled human liver microsomes
T1 sequence (P11712 whole entry): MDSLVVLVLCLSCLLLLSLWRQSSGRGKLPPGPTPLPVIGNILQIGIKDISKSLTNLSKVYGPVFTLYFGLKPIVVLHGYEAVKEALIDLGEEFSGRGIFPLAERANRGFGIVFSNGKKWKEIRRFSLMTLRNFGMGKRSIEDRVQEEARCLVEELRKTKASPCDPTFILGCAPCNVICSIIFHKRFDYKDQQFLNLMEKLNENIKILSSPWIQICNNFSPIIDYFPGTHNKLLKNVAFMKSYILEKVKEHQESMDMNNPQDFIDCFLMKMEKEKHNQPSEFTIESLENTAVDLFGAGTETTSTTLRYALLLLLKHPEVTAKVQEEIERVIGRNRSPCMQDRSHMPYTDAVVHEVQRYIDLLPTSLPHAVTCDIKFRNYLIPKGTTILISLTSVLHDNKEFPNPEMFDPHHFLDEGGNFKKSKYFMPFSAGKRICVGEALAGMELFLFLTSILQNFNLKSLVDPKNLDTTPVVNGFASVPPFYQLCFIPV
Description: The metabolic reactions of representative substrates of 5 major human CYP subtypes (CYP1A2, CYP2C9, CYP2C19, CYP2D6, CYP3A4/5) were evaluated using 150-donor pooled human liver microsomes (purchased from Corning, Cat. No. 452117). The effects of different concentrations of the test compounds on the metabolic reactions of phenacetin (CYP1A2), diclofenac sodium (CYP2C9), S-mephenytoin (CYP2C19), bufuralol hydrochloride (CYP2D6) and midazolam (CYP3A4/5) were determined by liquid chromatography-tandem mass spectrometry (LC/MS/MS).
30 μM phenacetin, 10 μM diclofenac sodium, 35 μM S-mephenytoin, 5 μM bufuralol hydrochloride, 3 μM midazolam, 1 mM NADPH, and test compounds (at concentrations of 0.1 μmol/L, 0.3 μmol/L, 1 μmol/L, 3 μmol/L, 10 μmol/L, and 30 μmol/L, respectively) or positive compound or blank were incubated with 200 μL of a reaction system of pooled human liver microsomes (0.2 mg/mL) (100 mmol/L phosphate buffer, pH 7.4, containing 0.3% by volume of DMSO, 0.6% by volume of acetonitrile, and 0.1% by volume of methanol) at 37° C. for 5 min. Then, 200 μL of acetonitrile containing 3% formic acid and 40 nM internal standard verapamil was added, and the mixture was centrifuged at 4000 rpm for 50 min. The mixture was cooled on ice for 20 min and centrifuged at 4000 rpm for 20 min to precipitate the protein. 200 μL of the supernatant was analyzed by LC/MS/MS.
The peak area was calculated from the chromatogram. The residual activity rate (%) was calculated by the following formula:
peak area rate=peak area of metabolite/peak area of internal standard
residual activity rate (%)=peak area proportion of the test compound group/peak area proportion of the blank group
The half maximal inhibitory concentrations (IC50) against CYP were calculated by Excel XLfit 5.3.1.3.

[1] = In vitro metabolic stability in human hepatocytes; type: in vitro ADME; conditions: human hepatocytes 1×10^6 cells/mL, 37° C., up to 120 min; read-out: Intrinsic clearance (uL/min/10^6 cells)
Description: The concentrations of the test compounds in the reaction system were determined by LC/MS/MS, so that the intrinsic clearance of the test compounds was calculated, and the in vitro metabolic stability in human hepatocytes was evaluated.
247.5 μL of a mixed solution of human hepatocytes at 1×10^6 cells/mL (purchased from BioreclamationIVT, Cat. No. S01205) and 2.5 μL of 100 μM test compound or positive control was added to a plate to initiate the reaction. The plate was incubated at 37° C. and 600 rpm. 20 μL of incubation system was transferred to a stop plate at 0.5 min, 5 min, 15 min, 30 min, 45 min, 60 min, 80 min, 100 min and 120 min. Then, the mixture was vortexed for 2 min to be mixed well. The stop plate was centrifuged at 4000 rpm for 20 min. 40 μL of supernatant of each compound was transferred to a 96-well sample template, after which 160 μL of pure water was added to dilute the samples.
The resulting samples were quantified from ion chromatogram. The residual rate was calculated from the peak area of the test compound or the positive control. Slope k was determined by linear regression of the […] of residual rates versus incubation time using Microsoft Excel.
Intrinsic clearance (in vitro CLint, μL/min/10^6 cells) was calculated from the slope value according to the following equation:
V=incubation volume (0.25 mL);
N=number of cells per well (0.25×10^6 cells)

| SMILES | IC50 (CYP2C9) [µM] | hepatocyte CLint at 1 μM [1] [µL/min/1e6 cells] |
| --- | --- | --- |
| CC(=O)N1CCOC(Cn2c(-c3c(F)cc(N4CCCC4=O)cc3F)nc3cc(C)ccc32)C1 (stereo in doubt) [Compound 1] | 21.7 | < 1 |
| COC(=O)N1CCOC(Cn2c(-c3c(F)cc(N4CCCC4=O)cc3F)nc3cc(C)ccc32)C1 (centres unmarked) [Compound 2, Methyl 2-((2-(2,6-difluoro-4-(2-carbonylpyrrolidin-1-yl)phenyl)-5-methyl-1H-benzo[d]imidazol-1-yl)methyl)morpholine-4-carboxylate] | 3.06 | 2.98 |
| CC(=O)N1CCO[C@@H](Cn2c(-c3ccc(N4CCCC4=O)cc3Cl)nc3cc(C)ccc32)C1 [Compound 3, (S)-1-(4-(1-((4-acetylmorpholin-2-yl)methyl)-5-methyl-1H-benzo[d]imidazol-2-yl)-3-chlorophenyl)pyrrolidin-2-one] | > 30 | 4.08 |
| CC(=O)N1CCO[C@@H](Cn2c(-c3c(F)cc(N4CCCC4=O)cc3Cl)nc3cc(C)ccc32)C1 [Compound 4, (S)-1-(4-(1-((4-acetylmorpholin-2-yl)methyl)-5-methyl-1H-benzo[d]imidazol-2-yl)-3-chloro-5-fluorophenyl)pyrrolidin-2-one] | > 30 | < 1 |
| COC(=O)N1CCO[C@@H](Cc2c(-c3c(F)cc(N4CCCC4=O)cc3F)nc3cc(C)ccn23)C1 [Compound 9, Methyl (S)-2-((2-(2,6-difluoro-4-(2-carbonylpyrrolidin-1-yl)phenyl)-7-methylimidazo[1,2-a]pyridin-3-yl)methyl)morpholine-4-carboxylate] | 1.48 | 3.86 |
| CC(=O)N1CCO[C@@H](Cn2c(-c3c(F)cc(N4CCCC4=O)cc3F)nc3cc(Cl)ccc32)C1 [Compound 10, (S)-1-(4-(1-((4-acetylmorpholin-2-yl)methyl)-5-chloro-1H-benzo[d]imidazol-2-yl)-3,5-difluorophenyl)pyrrolidin-2-one] | > 30 | < 1 |
| [2H]C([2H])([2H])c1ccc2c(c1)nc(-c1c(F)cc(N3CCCC3=O)cc1F)n2C[C@H]1CN(C(C)=O)CCO1 [Compound 14, (S)-1-(4-(1-((4-acetylmorpholin-2-yl)methyl)-5-(methyl-d3)-1H-benzo[d]imidazol-2-yl)-3,5-difluorophenyl)pyrrolidin-2-one] | 21.9 | < 1 |
